Consider 27 compounds from patent publication US8575197B2, “Pyrolinone derivative and pharmaceutical composition comprising the same” (Shionogi & Co., Ltd., priority 2008, dated 2013).

Each structure is given as a SMILES string.

In this assay the target is human P2X3 receptor (Homo sapiens (Human), UniProt P56373). Description: P2X3 receptor inhibition, ATP-evoked Fluo-3 calcium fluorescence (FDSS 3000). Format: cell-based. Particulars: C6BU-1 cell transfected with human P2X3 receptor gene; ATP-evoked Fluo-3 fluorescence. Summed up: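 C6BU-1 cells stably transfected with human P2X3, loaded with 4 μM Fluo-3-AM for 1 h at 37 °C in HEPES buffer pH 7.5 with probenecid. Compound added 5 min before 40 nM ATP solution; fluorescence followed 3 min. IC50 from ratio of peak post-ATP to baseline fluorescence.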
human P2X3 receptor, sequence (P56373 whole entry): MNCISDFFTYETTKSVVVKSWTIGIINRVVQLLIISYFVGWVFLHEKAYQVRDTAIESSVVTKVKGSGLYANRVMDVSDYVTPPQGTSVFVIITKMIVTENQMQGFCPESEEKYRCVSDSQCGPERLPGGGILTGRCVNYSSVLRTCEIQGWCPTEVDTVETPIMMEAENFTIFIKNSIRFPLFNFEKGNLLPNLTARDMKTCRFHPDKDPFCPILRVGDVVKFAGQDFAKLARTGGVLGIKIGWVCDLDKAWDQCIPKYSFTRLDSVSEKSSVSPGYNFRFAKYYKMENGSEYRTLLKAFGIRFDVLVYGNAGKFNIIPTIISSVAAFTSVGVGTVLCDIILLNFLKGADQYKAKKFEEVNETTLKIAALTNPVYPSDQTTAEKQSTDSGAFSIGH
Regarding `CC(C)C(=O)C1=C(O)C(=O)N(c2ccc(-c3ccco3)cc2)C1c1ccccc1OCCO` (stereo not drawn) [Compound I-225], the IC50 (usually the concentration that gives 50% inhibition) was determined as 65 nM.

As to `COCCOc1ccccc1C1C(C(=O)C(C)C)=C(O)C(=O)N1c1ccc(-c2cccs2)cc1` (stereo not drawn) [Compound I-226], the IC50 was determined as 12 nM.

With `COCOc1ccccc1C1C(C(=O)C(C)C)=C(O)C(=O)N1c1ccc(-c2cccs2)cc1` (stereo not drawn) [Compound I-227], the IC50 was 8 nM.

`COCCOc1ncccc1C1C(C(=O)C(C)C)=C(O)C(=O)N1c1ccc(-c2cccs2)cc1` (stereo not drawn) [Compound I-228]: the IC50 is 15 nM.

With `CC(C)C(=O)C1=C(O)C(=O)N(c2ccc(-c3cccs3)cc2)C1c1cccnc1OCCO` (stereo not drawn) [Compound I-229], the IC50 came out at 29 nM.

`COCOc1ccccc1C1C(C(=O)C(C)C)=C(O)C(=O)N1c1ccc(-c2ccco2)cc1` (stereo not drawn) [Compound I-230]: the IC50 stood at 18 nM.

With `COCCOc1ccccc1C1C(C(=O)C(C)C)=C(O)C(=O)N1c1ccc(-c2ccco2)cc1` (stereo not drawn) [Compound I-231], the IC50 was found to be 23 nM.

On to `COCOc1ccccc1C1C(C(=O)C(C)C)=C(O)C(=O)N1c1ccc(-c2ccoc2)cc1` (stereo not drawn) [Compound I-232], for which the IC50 is 24 nM.

As for `CC(C)C(=O)C1=C(O)C(=O)N(c2ccc(-c3ccoc3)cc2)C1c1cccnc1OCCO` (stereo not drawn) [Compound I-233], the half-inhibitory concentration (IC50) came to 124 nM.

`COCCOc1ncccc1C1C(C(=O)C(C)C)=C(O)C(=O)N1c1ccc(-c2ccoc2)cc1` (stereo not drawn) [Compound I-234]: the IC50 was 56 nM.

As to `COc1ccccc1C1C(C(=O)C(C)C)=C(O)C(=O)N1c1ccc(-c2ccsc2)c(F)c1` (stereo not drawn) [Compound I-235], the IC50 came to 35 nM.

Take `COc1ccccc1C1C(C(=O)C(C)C)=C(O)C(=O)N1c1ccc(-c2ccsc2)c(C)c1` (stereo not drawn) [Compound I-236]: the IC50 was determined as 431 nM.

`COc1ccccc1C1C(C(=O)C(C)C)=C(O)C(=O)N1c1ccc(-c2ccsc2)c(N)c1` (stereo not drawn) [Compound I-237]: the IC50 turned out to be 705 nM.

On to `COc1ccccc1C1C(C(=O)CC(C)C)=C(O)C(=O)N1c1ccc(-c2ccsc2)cc1` (stereo not drawn) [Compound I-239], for which the IC50 was 35 nM.

For `COc1ccccc1C1C(C(=O)C(C)C)=C(O)C(=O)N1c1ccc(-c2ccsc2)c(O)c1` (stereo not drawn) [Compound I-240], the IC50 is 185 nM.

As to `COc1ccccc1C1C(C(=O)C(C)C)=C(O)C(=O)N1c1ccc(-c2ccsc2)c(CO)c1` (stereo not drawn) [Compound I-241], the IC50 turned out to be 822 nM.

With `COc1ccccc1C1C(C(=O)C(C)C)=C(O)C(=O)N1c1ccc(-c2ccsc2)c(N(C)C)c1` (stereo not drawn) [Compound I-242], the IC50 was 357 nM.

As for `CC(C)C(=O)C1=C(O)C(=O)N(c2ccc(-c3ccsc3)cc2)C1c1ccccc1C#N` (stereo not drawn) [Compound I-244], the IC50 stood at 27 nM.

In the case of `CC(C)C(=O)C1=C(O)C(=O)N(c2ccc(-c3ccsc3)cc2)C1c1ccccc1C(=O)N(C)C` (stereo not drawn) [Compound I-245], the IC50 was 47 nM.

`COCCc1ccccc1C1C(C(=O)C(C)C)=C(O)C(=O)N1c1ccc(-c2ccsc2)cc1` (stereo not drawn) [Compound I-247]: the IC50 amounted to 15 nM.

Take `COCCOc1ncccc1C1C(C(=O)CC(C)C)=C(O)C(=O)N1c1ccc(-c2ccsc2)cc1` (stereo not drawn) [Compound I-248]: the half-inhibitory concentration (IC50) was 30 nM.

As for `COCOc1ccccc1C1C(C(=O)CC(C)C)=C(O)C(=O)N1c1ccc(-c2ccsc2)cc1` (stereo not drawn) [Compound I-249], the IC50 is 10 nM.

As for `CC(C)CC(=O)C1=C(O)C(=O)N(c2ccc(-c3ccsc3)cc2)C1c1ccccc1OCCO` (stereo not drawn) [Compound I-250], the IC50 was 29 nM.

As to `COCCOc1ccccc1C1C(C(=O)CC(C)C)=C(O)C(=O)N1c1ccc(-c2ccsc2)cc1` (stereo not drawn) [Compound I-251], the IC50 was 17 nM.

Turning to `COCc1ccccc1C1C(C(=O)CC(C)C)=C(O)C(=O)N1c1ccc(-c2ccsc2)cc1` (stereo not drawn) [Compound I-252], the IC50 amounted to 10 nM.

With `CNC(=C(C)C)C1=C(O)C(=O)N(c2ccc(-c3ccsc3)cc2)C1c1cccnc1O` (stereo not drawn) [Compound I-253], the IC50 turned out to be 193 nM.

Regarding `COCc1ccccc1[C@H]1C(C(=O)C(C)C)=C(O)C(=O)N1c1ccc(-c2ccsc2)cc1` [Compound I-254], the IC50 amounted to 511 nM.
